According to ChEMBL document CHEMBL5344420, “Flexibility in the bridge of chalcone derivatives is important for the inhibition of cellular growth” (Bioorg Med Chem Lett, 2023):

System: A549
Test: Antiproliferative activity against human A549 cells assessed as cell growth inhibition measured after 48 hrs by CellTiter Aqueous One Solution MTS assay
Format: functional, cell-based
Conditions: A549, 48 h

## O=C1/C(=C/c2ccc(O)cc2)CCc2ccccc21
  IC50: > 30 µM

## COc1ccc(/C=C2\CCc3ccccc3C2=O)cc1
  IC50: > 30 µM

## Cc1ccc(/C=C2\Cc3ccccc3C2=O)cc1
  IC50: > 30 µM

## O=C1/C(=C/c2ccccc2)Cc2ccccc21
  IC50: > 30 µM

## O=C1/C(=C/c2ccccc2)CCc2ccccc21
  IC50: > 30 µM

## O=C1/C(=C/c2ccc(F)cc2)CCc2ccccc21
  IC50: > 30 µM

## Cc1ccc(/C=C2\CCc3ccccc3C2=O)cc1
  IC50: > 30 µM

## O=C1/C(=C/c2ccc(F)cc2)Cc2ccccc21
  IC50: > 30 µM

## COc1ccc(/C=C2\Cc3ccccc3C2=O)cc1
  IC50: > 30 µM

## Cc1ccc(/C=C/C(=O)c2ccccc2)cc1
  IC50: 16.8 µM

## O=C1/C(=C/c2ccc(OC(F)(F)F)cc2)Cc2ccccc21
  IC50: > 30 µM

## O=C(/C=C/c1ccc(OC(F)(F)F)cc1)c1ccccc1
  IC50: 5.35 µM

## O=C1/C(=C/c2ccc(O)cc2)Cc2ccccc21
  IC50: > 30 µM

## O=C1/C(=C/c2ccc(OC(F)(F)F)cc2)CCc2ccccc21
  IC50: > 30 µM

## O=C(/C=C/c1ccc(O)cc1)c1ccccc1 [4-HYDROXYCHALCONE]
  IC50: 26.6 µM

## COc1ccc(/C=C/C(=O)c2ccccc2)cc1 [4-METHOXY CHALCONE]
  IC50: 5.2 µM

## O=C(/C=C/c1ccccc1)c1ccccc1 [CHALCONE]
  IC50: 12.2 µM
